Data: ChEMBL document CHEMBL1123773, “The role of solvent-accessible surface area in determining partition coefficients” (J Med Chem, 1987)

Tests used:
[1] = Diffusion constant for permeability of stratum corneum; format: ADME
[2] = Partition coefficient (logP) (chloroform); conditions: octanol/water
[3] = Partition coefficient (logP) (ether); conditions: octanol/water
[4] = Partition coefficient (logP) (hexane); conditions: octanol/water
[5] = Partition coefficient (logP); conditions: octanol/water
[6] = Partition coefficient (logP) (benzene); conditions: octanol/water
[7] = Partition coefficient (logP) (carbon tetrachloride); conditions: octanol/water

`C[C@]12CCC(=O)C=C1CC[C@@H]1[C@@H]2CC[C@@]2(C)[C@H]1CC[C@]2(O)C(=O)CO` [CORTODOXONE] gave a Log k [1] of 1.88.
`COc1ccc(O)cc1` [MEQUINOL] showed a logP [2] of 0.23, a logP [3] of 1.47 and a logP [4] of -0.76.
`CCCC(C)C1(CC)C(=O)NC(=O)NC1=O` (centres undefined) [PENTOBARBITAL] gave a logP [5] of 2.1, a logP [2] of 1.38 and a logP [3] of 1.28. The logP [4] was -1.3.
Compound `C[C@]12C[C@H](O)[C@H]3[C@@H](CCC4=CC(=O)CC[C@@]43C)[C@@H]1CC[C@@H]2C(=O)CO` [CORTICOSTERONE] has a Log k [1] of 1.78.
In the case of `CCCCCCCO` [1-HEPTANOL], the logP [5] is reported as 2.41, the logP [2] is reported as 2.41 and the logP [3] is reported as 2.4. The logP [4] was 1.01.
Work on `O=[N+]([O-])c1ccccc1O` [NITROPHENOLATE] yielded a logP [2] of 2.35, a logP [3] of 2.18 and a logP [4] of 1.4.
Compound `Oc1ccc(O)cc1` [HYDROQUINONE] has a logP [6] of 0.15, a logP [2] of 0.23 and a logP [3] of 0.38. It also gave a logP [4] of 0.05 and a logP [7] of 0.04.
For `CC(C)=O` [ACETONE], the logP [2] was 0.24, the logP [3] was -0.21 and the logP [4] was -0.91.
In the case of `O=C(O)C(Cl)(Cl)Cl` [TRICHLOROACETIC ACID], the logP [5] is reported as 1.33, the logP [2] is reported as -0.69 and the logP [3] is reported as 1.21. For the same compound, the logP [4] was -2.63.
With `CCCN` [PROPYLAMINE] the logP [5] was 0.28, the logP [2] was 0.26 and the logP [3] was -0.54.
`CO` [METHYL ALCOHOL] gave a logP [5] of -0.77, a logP [2] of -1.26 and a logP [3] of -1.15. For the same compound, the logP [4] was -2.8.
For `CCN` [ETHYLAMINE], the logP [5] was -0.3, the logP [2] was -0.35 and the logP [3] was -1.18. The logP [4] was -1.77.
With `CCC(=O)O` [PROPIONIC ACID] the logP [2] was -0.96, the logP [3] was 0.27 and the logP [4] was -2.14.
Compound `CCC(N)CC` has a logP [5] of 0.57, a logP [2] of 0.81 and a logP [3] of -0.07. It also gave a logP [4] of -0.48.
With `CC(=O)[C@H]1CC[C@H]2[C@@H]3CC=C4C[C@@H](O)CC[C@]4(C)[C@H]3CC[C@]12C` [PREGNENOLONE] the Log k [1] was 3.17.
In the case of `COc1ccc(C=O)cc1O` [ISOVANILLIN], the logP [5] is reported as 0.97, the logP [2] is reported as 1.18 and the logP [3] is reported as 0.82. For the same compound, the logP [4] was -0.85.
Compound `C[C@]12CCC(=O)C=C1CC[C@@H]1[C@@H]2C(=O)C[C@@]2(C)[C@H]1CC[C@]2(O)C(=O)CO` [CORTISONE] has a Log k [1] of 1.
For `CC(C)(C)N` [TERT-BUTYLAMINE], the logP [5] was 0.27, the logP [2] was 0.54 and the logP [3] was -0.26. For the same compound, the logP [4] was -0.48.
For `COc1cc(C=O)ccc1O` [VANILLIN], the logP [2] was 1.42, the logP [3] was 0.96 and the logP [4] was -0.72.
`CC(=O)[C@@]1(O)CC[C@H]2[C@@H]3CC[C@@H]4C[C@H](O)CC[C@]4(C)[C@H]3CC[C@@]21C` [HYDROXYPREGNENOLONE] gave a Log k [1] of 2.78.
In the case of `CCCCN` [BUTYLAMINE], the logP [5] is reported as 0.74, the logP [2] is reported as 0.56 and the logP [3] is reported as 0.11. The logP [4] was -0.62.
`Nc1ccccc1[N+](=O)[O-]` [2-NITROANILINE] gave a logP [5] of 1.85, a logP [2] of 2.13 and a logP [3] of 1.95. For the same compound, the logP [4] was 0.25.
`Oc1ccc2ccccc2c1` [BETANAPHTHOL] gave a logP [6] of 1.74, a logP [2] of 1.74 and a logP [3] of 1.77. It also gave a logP [4] of 0.3 and a logP [7] of 0.99.
`Oc1ccccc1` [PHENOL] showed a logP [6] of 0.36, a logP [2] of 0.37 and a logP [3] of 1.64. The logP [4] was -0.7 and the logP [7] was -0.36.
For `CCC1(c2ccccc2)C(=O)NC(=O)NC1=O` [PHENOBARBITAL], the logP [5] was 1.71, the logP [2] was 0.62 and the logP [3] was 1.51. For the same compound, the logP [4] was -2.22.
`Nc1ccccc1C(=O)O` [ANTHRANILIC ACID] gave a logP [5] of 1.21, a logP [2] of -1.15 and a logP [3] of 1.43. It also gave a logP [4] of -2.12.
`CCCCCO` [1-PENTANOL] gave a logP [2] of 1.05, a logP [3] of 1.2 and a logP [4] of -0.4.
For `O=C(O)c1ccc(O)cc1` [PARABEN], the logP [2] was -0.5, the logP [3] was 1.42 and the logP [4] was -1.82.
`CCCCCC(=O)O` [HEXANOATE] gave a logP [2] of 1.15, a logP [3] of 1.95 and a logP [4] of -0.46.
With `COc1cccc(C=O)c1O` the logP [5] was 1.37, the logP [2] was 2.3 and the logP [3] was 1.35. It also gave a logP [4] of 0.53.
For `C[C@]12CC[C@H]3[C@@H](CCC4=CC(=O)CC[C@@]43C)[C@@H]1CC[C@@H]2O` [TESTOSTERONE], the Log k [1] was 2.6.
`CC(=O)[C@@]1(O)CC[C@H]2[C@@H]3CCC4=CC(=O)CC[C@]4(C)[C@H]3CC[C@@]21C` [HYDROXYPROGESTERONE] showed a Log k [1] of 2.78.
Compound `O=C(O)c1ccccc1O` [SALICYLIC ACID] has a logP [6] of 0.5, a logP [2] of 0.58 and a logP [3] of 2.37. The logP [4] was -0.57 and the logP [7] was 0.
Compound `Nc1cccc([N+](=O)[O-])c1` [3-NITROANILINE] has a logP [2] of 1.61, a logP [3] of 1.71 and a logP [4] of -0.62.
Compound `CC(=O)[C@H]1CC[C@H]2[C@@H]3CCC4=CC(=O)CC[C@]4(C)[C@H]3CC[C@]12C` [PROGESTERONE] has a Log k [1] of 3.18.
Compound `C[C@]12CCC(=O)C=C1CC[C@@H]1[C@@H]2[C@@H](O)C[C@]2(C=O)[C@@H](C(=O)CO)CC[C@@H]12` [ALDOSTERONE] has a Log k [1] of 0.48.
`O=C(O)c1cccc([N+](=O)[O-])c1` showed a logP [2] of 0.48, a logP [3] of 1.97 and a logP [4] of -1.22.
With `O=[N+]([O-])c1ccc(O)cc1` [P-NITROPHENOL] the logP [2] was 0.2, the logP [3] was 2.01 and the logP [4] was -2.
For `C[C@]12CC[C@H]3[C@@H](CCC4=CC(=O)CC[C@@]43C)[C@@H]1CC[C@@H]2C(=O)CO` [DESOXYCORTICOSTERONE], the Log k [1] was 2.65.
In the case of `COC(C)=O` [ACETIC ACID METHYL ESTER], the logP [2] is reported as 1.16, the logP [3] is reported as 0.43 and the logP [4] is reported as -0.26.
`CCCCC(=O)O` [VALERIC ACID] showed a logP [5] of 1.39, a logP [2] of 0.28 and a logP [3] of 1. It also gave a logP [4] of -1.
Compound `CC(C)CO` [ISOBUTANOL] has a logP [5] of 0.65, a logP [2] of 0.34 and a logP [3] of 0.53. It also gave a logP [4] of -0.6.
`O=C(O)CCl` [CHLOROACETIC ACID] showed a logP [5] of 0.22, a logP [2] of -1.92 and a logP [3] of 0.37. It also gave a logP [4] of -3.14.
`Nc1ccccc1` [ANILINE] showed a logP [2] of 1.42, a logP [3] of 0.85 and a logP [4] of -0.3.
`O=[N+]([O-])c1cccc(O)c1` [3-NITRO-PHENOL] showed a logP [2] of 0.6, a logP [3] of 2.18 and a logP [4] of -1.4.
With `COc1ccccc1O` [GUAIACOL] the logP [5] was 1.32, the logP [2] was 1.7 and the logP [3] was 1.44. The logP [4] was 0.36.
In the case of `O=Cc1ccc(O)cc1` [4-HYDROXYBENZALDEHYDE], the logP [2] is reported as -0.12, the logP [3] is reported as 1.1 and the logP [4] is reported as -0.95.
For `CCOC(C)=O` [ETHYL ACETATE], the logP [2] was 1.8, the logP [3] was 0.93 and the logP [4] was 0.29.
